Laboratory results published in patent publication US9861685B2, “Methods of treating hemoglobinopathies” (Duke University, priority 2012, dated 2018).

How the values were obtained:
[1] = tested on: SS RBCs co-incubated with polymorphonuclear cells (PMNs); conditions: previously shown; SS RBCs co-incubated with naive PMNs; cited from earlier work
ERK [2] = conditions: cited from earlier work
ERK1/2 = conditions: see WO 2012/149547; cited from earlier work
[3] = tested on: human SS RBC adhesion to vascular endothelium and vaso-occlusion; assay: Intravital microscopy of ex vivo treated human SS RBCs infused into nude mice (window chamber); assay type: in vivo; conditions: nude mice n=2; SS RBCs treated ex vivo with 20 nM epinephrine 1 min
Description: For some in vivo adhesion studies, packed SS RBCs were fluorescently labeled with the dye Dil (Molecular Probes Inc., Eugene, Oreg.), following the manufacturer's instructions, prior to cell treatment. Dil has been used in previous in vivo studies, and this dye has no effect on RBC suspension viscosity and RBC survival in circulation.^30 Cell morphology was checked by microscopy.
All animal experiments were carried out in accordance with protocols approved by the Duke University Animal Care and Use Committee. Female athymic homozygous nude mice (nu-/nu-) were between 8-12 weeks of age (Charles River Laboratories, Wilmington, Mass.).
General anesthesia was achieved by intra-peritoneal injection of 100 mg/kg of ketamine (Abbott Laboratory, Chicago, Ill.) and 10 mg/kg of xylazine (Bayer, Shawnee Mission, Kans.). […]
Animals were infused with washed SS RBCs (300 μl hematocrit (Hct) 50% in saline) treated with epinephrine at 20 nM for 1 min or 5 μM βARK1 for 1 hour followed by treatment with 20 nM epinephrine for 1 min. […] Microcirculatory events and cell adhesion were simultaneously recorded using a Trinitron Color video monitor (PVM-1353 MD, Sony) and JVC videocassette recorder (BR-S3784, VCR King, Durham, N.C.) connected to a digital video camera C2400 (Hamamatsu Photonics K.K., Japan). […]

cAMP = conditions: SS RBCs
β-arrestin1/2 [4] = assay type: cell-based, human
β-arrestin1/2 [5] = assay: Western blot of SS RBC membrane ghosts for β-arrestin1/2 and phosphorylated β-arrestin1
GRK2 = target: T1, GRK2 (Homo sapiens, UniProt P25098); assay: Western blot of SS RBC membrane ghosts for total and phosphorylated GRK2
T1 sequence (P25098 1-689): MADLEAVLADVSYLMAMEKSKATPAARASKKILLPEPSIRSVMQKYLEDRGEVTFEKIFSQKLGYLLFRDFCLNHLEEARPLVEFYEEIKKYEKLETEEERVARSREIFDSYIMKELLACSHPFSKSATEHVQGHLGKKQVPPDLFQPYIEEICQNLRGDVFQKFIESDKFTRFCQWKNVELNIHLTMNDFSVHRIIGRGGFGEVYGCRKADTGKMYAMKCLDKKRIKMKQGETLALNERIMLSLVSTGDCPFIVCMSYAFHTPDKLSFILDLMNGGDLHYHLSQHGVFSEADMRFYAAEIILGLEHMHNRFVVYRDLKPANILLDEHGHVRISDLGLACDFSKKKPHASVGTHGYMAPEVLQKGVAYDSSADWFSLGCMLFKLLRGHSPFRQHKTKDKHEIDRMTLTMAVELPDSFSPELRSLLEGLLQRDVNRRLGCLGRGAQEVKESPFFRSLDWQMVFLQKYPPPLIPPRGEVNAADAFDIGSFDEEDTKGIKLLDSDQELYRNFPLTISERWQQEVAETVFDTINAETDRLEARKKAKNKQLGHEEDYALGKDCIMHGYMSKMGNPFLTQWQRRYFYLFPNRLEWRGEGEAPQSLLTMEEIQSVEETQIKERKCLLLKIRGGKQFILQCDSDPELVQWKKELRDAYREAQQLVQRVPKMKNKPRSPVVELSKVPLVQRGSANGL

ERK [6] = assay type: cell-based, human

In the case of `Cn1cnc2c(F)c(Nc3ccc(Br)cc3Cl)c(C(=O)NOCCO)cc21` [AZD6244], the “ability of SS RBCs to promote PMN adhesion to ECs” value (“ability of SS RBCs” below) [1] is given as “decreased”.
In the case of `COc1cc(F)c(F)c(Nc2ccc(I)cc2F)c1NS(=O)(=O)C1(C[C@H](O)CO)CC1` [RDEA119], the “ability of SS RBCs” value [1] is given as “decreased”.
For `CNC[C@H](O)c1ccc(O)c(O)c1` [Epi, epinephrine], the ERK phosphorylation (ERK [2]) is listed as “enhanced”, the “ERK phosphorylation/activation in normal RBCs” value (ERK1/2) is listed as “fails to become phosphorylated/activated” and the “SS RBC adhesion in inflamed venules” value [3] is listed as “marked adhesion”. For the same molecule, the “vaso-occlusion (occlusion of vessels)” value [3] was “induced occlusion”, the “SCD patient samples tested in which cAMP levels increased” value (cAMP) was 50% and the “basal phosphorylation of β-arrestin1” value (β-arrestin1/2 [4]) was “failed to increase”. The “membrane-recruitment of β-arrestin1/2” value (β-arrestin1/2 [4]) was “failed to increase”, the “β-arrestin1/2 membrane-recruitment (translocation)” value (β-arrestin1/2 [5]) was “enhanced” and the β-arrestin1 phosphorylation (β-arrestin1/2 [5]) was “enhanced”.
In the case of `N#CC(=C(/N)Sc1ccccc1N)/C(C#N)=C(\N)Sc1ccccc1N` [U0126], the “ability of SS RBCs” value [1] is given as “decreased”, the “effect on CT-induced GRK2 membrane-translocation” value (GRK2) is given as “significantly abrogated” and the “effect on CT-induced GRK2 phosphorylation” value (GRK2) is given as “significantly abrogated”. For the same molecule, the “effect on PTx-induced GRK2 membrane-translocation” value (GRK2) was “significantly abrogated”, the “effect on PTx-induced GRK2 phosphorylation” value (GRK2) was “significantly abrogated” and the “effect on CT-increased ERK phosphorylation” value (ERK [6]) was “inhibited”. For the same molecule, the “effect on CT-induced β-arrestin1/2 membrane-translocation” value (β-arrestin1/2 [5]) was “significantly inhibited”, the “effect on PTx-induced β-arrestin1/2 recruitment to the membrane” value (β-arrestin1/2 [5]) was “failed to have an effect” and the “effect on levels of β-arrestin1 phosphorylation (CT-treated)” value (β-arrestin1/2 [5]) was “decreased”.
In the case of `CC(=O)Nc1cccc(-n2c(=O)n(C3CC3)c(=O)c3c(Nc4ccc(I)cc4F)n(C)c(=O)c(C)c32)c1` [GSK1120212], the “ability of SS RBCs” value [1] is given as “decreased”.
